In article PMC6140472 (Proceedings of the National Academy of Sciences of the …, 2018) one finds LC-MS/MS product assay data, which are given here for 2 molecules.

In the assay the target is T1, MhFPPS (MhIDS-2), full-length (Murgantia histrionica, UniProt A0A343W970).
T1 sequence (A0A343W970 1-405): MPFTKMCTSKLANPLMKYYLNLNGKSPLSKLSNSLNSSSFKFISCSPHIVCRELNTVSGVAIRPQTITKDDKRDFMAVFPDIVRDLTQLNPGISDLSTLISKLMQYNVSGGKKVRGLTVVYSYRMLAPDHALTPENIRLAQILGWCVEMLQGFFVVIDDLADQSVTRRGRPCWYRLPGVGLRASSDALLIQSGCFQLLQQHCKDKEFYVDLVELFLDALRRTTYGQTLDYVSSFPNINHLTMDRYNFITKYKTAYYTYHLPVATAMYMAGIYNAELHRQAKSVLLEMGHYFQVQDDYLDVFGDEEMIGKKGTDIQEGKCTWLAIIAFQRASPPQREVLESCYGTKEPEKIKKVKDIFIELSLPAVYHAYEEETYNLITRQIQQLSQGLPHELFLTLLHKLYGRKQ
The assay can be described thus: LC-MS/MS product assay. Format: biochemical.

As to `CC(C)=CCOP(=O)(O)OP(=O)(O)O` [DMAPP], the LC-MS/MS product assay entry (co-substrate IPP) is “MhIDS-2 produced (E,E)-FPP from IPP and DMAPP”.
`C=C(C)CCOP(=O)(O)OP(=O)(O)O` [IPP]: the LC-MS/MS product assay entry (co-substrate DMAPP) was “MhIDS-2 produced (E,E)-FPP from IPP and DMAPP”.
